Reference: patent US4369120A, “Refrigeration liquid with leak indicator and process of using same” (priority 1981, dated 1983)
“Also recorded” adds a separate entry of the source.

Experiments:
[1] = Sealed tube test of stability of dyes in refrigerant/refrigeration oil with metal coupons; assay type: physicochemical; conditions: for Stability, Mean Life: Table I, sealed tube data in R-12 at 350° F.; for stability in the sealed tube test (in words): Table I dyes
Experimental: By reference to Table I below it can be appreciated that such ortho substitution has a remarkably beneficial effect on the stability of the dyes in the accelerated sealed tube test used for evaluation. The first three dyes listed, embodying the principles of this invention, routinely withstand in excess of twenty days in the sealed tube test at 350° F. (176.7° C.), equivalent to many years of normal use in a refrigeration system.
The sealed tube test serves as a method of evaluating in an accelerated manner interactions of materials found in a refrigeration system.
Glass tubes and all metal test coupons are scrupulously cleaned. Test refrigerants are distilled to minimize moisture contamination. Moisture is removed from the refrigeration test oil "Suniso" 3GS by subjecting the oil to a vacuum with slight stirring and heating. Ratios of refrigerant/refrigerant oil range from 1:1 to 1:2 by weight.
Refrigerant oil and representative metal coupons of copper #10AWG wire, Swedish valve stock steel, and aluminum metal sheet are placed in a glass tube along with the subject test dye material (0.25-1.0% wt/wt) dissolved in the refrigerant oil. Like samples without the subject dye are analyzed as controls.
The tube and its contents are chilled in a liquid nitrogen bath while the refrigerant is condensed into the tube via a calibrated manometer. The tube is sealed under a vacuum of at least 0.1 torr.
Glass tubes and contents are subjected to uniform heating in a bored aluminum block placed in a temperature-programmed oven.
The oven temperatures used vary according to the test refrigerant, as indicated:
The test is run for one of the following time periods: 5, 14, 21, 30 or 60 days.
The tube contents may be evaluated by several methods:
of these methods, the visual examination is the most rapid and the only qualitative method. Any color change in the subject dye coloration is noted when compared to a control sample.
The quantitative methods involve analysis for decomposition products of chloride as hydrochloric acid or organic products by gas chromatography, infrared spectroscopy, or mass spectroscopy. However, visual inspection and gas chromatography are widely used, and they were selected as standardization procedures for evaluation of sealed tube contents.
R-12 is chemically one of the more reactive refrigerants; thus, short term tests with refrigeration liquids containing this refrigerant admixed with a mineral oil yield the most rapid results. R-22 and R-502 are also used but the decomposition products are more difficult to analyze by gas chromatography. Ultimately the test material must pass interactions involving any of these refrigerants. The visual method can be used empirically on a pass-fail basis. As verified experimentally, visual results are considered as valid as instrumental methods.

[2] = Solubility of dyes in refrigeration oils; conditions: for Oil Sol. In 3GS: Table I, Suniso 3GS refrigeration oil; for Dye Solubility in refrigeration oil: room temperature (about 21° C.)
Experimental: Manufacturers of refrigeration equipment generally demand that any refrigeration liquid satisfactorily pass such a sealed tube test before they approve the liquid for use in their equipment. In addition, the solubility of the various dyes in oil and in refrigerant were determined.
Solubility of various dyes in various refrigeration oils was carefully determined according to the following standardized procedure. An excess of the subject dye was added to a given weight (e.g., 100 g) of refrigerant oil. The mixture was stirred for one-half hour with mild heating, whereupon it was cooled to room temperature (about 21° C.) and transferred to a centrifuge tube. The mixture was centrifuged approximately 15 minutes at 1000 rpm. A sample of the supernatant liquid was decanted (1.00 g±0.01 g) and diluted to 100 ml volume with methylene chloride. Aliquot portions were taken and read against the principal absorption peaks by visible light spectroscopy. Wt/wt percentage concentrations were then calculated from proper standard curves.

[3] = Solubility of dyes in halocarbon refrigerants; assay type: physicochemical
Experimental: Solubilities of various dyes in various halocarbon refrigerants were also determined according to the following standardized procedure. […] The R-11 was allowed to vaporize, leaving a known amount of dye in the bottom portion of the test tube. The tube was then attached to a charging apparatus containing a supply of a given halocarbon refrigerant and various amounts of the refrigerant were charged into the tube while chilling the latter by immersion in liquid nitrogen. The tube containing the dye/refrigerant mixture was sealed under vacuum, allowed to reach room temperature (about 21° C.) and rotated for several hours. Visual inspection of the tube was made at several temperatures to note the degree of dissolution. The procedure was improved over previously used methods in that an exact predetermined amount of dye and refrigerant were made to interact, requiring fewer weighings. Finally, it became possible to use the same tube to check solubility at several different temperatures.

## CCCCCCCCNc1ccc(NCCCCCCCC)c2c1C(=O)c1ccccc1C2=O [Dye No. 13-27, 1,4-Bis(n-octylamino)]
[1]
  Stability, Mean Life: 4.4 days
[2]
  Oil Sol. In 3GS: 0.5%

## CCCCc1ccc(Nc2ccc(Nc3ccc(C)cc3)c3c2C(=O)c2ccccc2C3=O)cc1 [Dye No. 21-11, 1-(4-n-butylanilino)-4-(p-toluidino)]
[1]
  Stability, Mean Life: 7.7 days
[2]
  Oil Sol. In 3GS: 0.1%

## O=C1c2ccccc2C(=O)c2c(NCCc3ccccc3)ccc(NCCc3ccccc3)c21 [Dye No. 9-8, 1,4-Bis(β-phenethylamino)]
[1]
  Stability, Mean Life: 4.4 days
[2]
  Oil Sol. In 3GS: 0.1%

## O=C1c2ccccc2C(=O)c2c(NCc3ccccc3)ccc(NCc3ccccc3)c21 [Dye No. 10-19, 1,4-Bis(benzylamino)]
[1]
  Stability, Mean Life: 4.5 days
[2]
  Oil Sol. In 3GS: < 0.25%

## CCCCc1ccc(N(C)c2ccc(N(C)c3ccc(CCCC)cc3)c3c2C(=O)c2ccccc2C3=O)cc1 [Dye No. 18-6, 1,4-Bis(N-methyl-4-n-butylanilino)anthraquinone]
[1]; 350° F.
  stability in the sealed tube test (in words): very unstable
[1]
  Stability, Mean Life: 4.3 days
[2]
  Oil Sol. In 3GS: 0.1%

## O=C1c2ccccc2C(=O)c2c(Nc3ccccc3C(F)(F)F)ccc(Nc3ccccc3C(F)(F)F)c21 [Dye No. 23-24, 1,4-Bis(2-trifluoro-methylanilino)]
[1]; 350° F.
  stability in the sealed tube test (in words): very unstable
[1]
  Stability, Mean Life: 6.5 days
[2]
  Oil Sol. In 3GS: 0.5%

## O=C1c2ccccc2C(=O)c2c(Nc3ccc(C4CCCCC4)cc3)ccc(Nc3ccc(C4CCCCC4)cc3)c21 [Dye No. 5-5, 1,4-Bis(4-cyclohexylanilino)]
[1]
  Stability, Mean Life: 9.7 days
[2]
  Oil Sol. In 3GS: 0.1%

## CC(Nc1ccc(NC(C)c2ccccc2)c2c1C(=O)c1ccccc1C2=O)c1ccccc1 (stereo not drawn) [Dye No. 11-17, 1,4-Bis(α-methylbenzylamino)]
[1]
  Stability, Mean Life: 3.5 days
[2]
  Oil Sol. In 3GS: 1.0%

## CCc1cccc(C)c1Nc1ccc(Nc2c(C)cccc2CC)c2c1C(=O)c1ccccc1C2=O [Dye No. 1-35, 1,4-bis(2-methyl-6-ethylanilino)anthraquinone]
[1]; 402° F. (205.5° C.), compared with 350° F.
  stability in the sealed tube test at 402° F. (in words): virtually as stable at 402° F. (205.5° C.) as it is at 350° F. (176.7° C.); also recorded: excellent stability of dye No. 1-35 persists even at much higher test temperatures
[1]; Sample C, purity 97%
  Mean Life, Days at 350° F.: 24.0 days
[1]; Sample D, purity 95%
  Mean Life, Days at 350° F.: 24.0 days
[1]; Sample E, purity 89%
  Mean Life, Days at 350° F.: 17.0 days
[1]; Sample F, purity 65%
  Mean Life, Days at 350° F.: 5.0 days
[1]; Samples A and B, purity 100% (by definition)
  Mean Life, Days at 350° F.: 26.2 days
[1]
  Stability, Mean Life: 26.2 days
[1]; text summary of Table I, 350° F.
  stability as measured by the sealed tube test: > 20 days
[3]
  solubility in the halocarbon refrigerant (in words): sufficient solubility; also recorded: substantially greater solubility in the various refrigerants than the other dyes tested
[3]; R-11, 21° C.
  Solubility in refrigerant: 0.2 %(wt/wt)
[3]; R-12, 0° C.
  Solubility in refrigerant: 0.2 %(wt/wt)
[3]; R-12, 21° C.
  Solubility in refrigerant: 0.2 %(wt/wt)
[3]; R-12, -20° C.
  Solubility in refrigerant: 0.2 %(wt/wt)
[3]; R-22, 0° C.
  Solubility in refrigerant: 0.4 %(wt/wt)
[3]; R-22, 21° C.
  Solubility in refrigerant: 0.4 %(wt/wt)
[3]; R-22, -20° C.
  Solubility in refrigerant: 0.4 %(wt/wt)
[3]; R-502, 0° C.
  Solubility in refrigerant: < 0.1 %(wt/wt)
[3]; R-502, 21° C.
  Solubility in refrigerant: 0.1 %(wt/wt)
[3]; R-502, -20° C.
  Solubility in refrigerant: < 0.1 %(wt/wt)
[3]; Table I, refrigerant R-12
  Refr. Sol. In R-12: 0.2%
[2]
  solubility in the refrigeration oil (in words): relatively high solubility
  Oil Sol. In 3GS: 4.8%
[2]; DuPont Zephron 150 (alkyl benzene type)
  Dye Solubility in refrigeration oil: 5.3 %(wt/wt)
[2]; Suniso 3GS
  Dye Solubility in refrigeration oil: 4.8 %(wt/wt)
[2]; Suniso 4GS
  Dye Solubility in refrigeration oil: 4.6 %(wt/wt)
[2]; Suniso 5GS
  Dye Solubility in refrigeration oil: 4.8 %(wt/wt)
[2]; Texaco Cappella D
  Dye Solubility in refrigeration oil: 4.8 %(wt/wt)
[2]; Texaco Cappella E
  Dye Solubility in refrigeration oil: 4.9 %(wt/wt)
[2]; summary of Table II
  solubility in representative naphthenic and alkyl benzene refrigeration oils: about 5%

## CN(c1ccccc1)c1ccc(N(C)c2ccccc2)c2c1C(=O)c1ccccc1C2=O [Dye No. 16-10, 1,4-Bis(N--methylanilino)]
[1]; 350° F.
  stability in the sealed tube test (in words): very unstable
[1]
  Stability, Mean Life: 7.0 days
[2]
  Oil Sol. In 3GS: 0.1%

## CCCCc1ccc(Nc2ccc(Nc3ccc(CCCC)cc3)c3c2C(=O)c2ccccc2C3=O)cc1 [Dye No. 4-1, 1,4-Bis(4-n-butylanilino)]
[1]
  Stability, Mean Life: 9.5 days
[2]
  Oil Sol. In 3GS: < 1.0%

## CCCCCCCCCCCCNc1ccc(NCCCCCCCCCCCC)c2c1C(=O)c1ccccc1C2=O [Dye No. 14-32, 1,4-Bis(n-dodecylamino)]
[1]
  Stability, Mean Life: 2.3 days
[2]
  Oil Sol. In 3GS: 0.5%

## CCOc1ccc(N(C)c2ccc(N(C)c3ccc(OCC)cc3)c3c2C(=O)c2ccccc2C3=O)cc1 [Dye No. 19-9, 1,4-Bis(N--methyl-4-ethoxyanilino)]
[1]; 350° F.
  stability in the sealed tube test (in words): very unstable
[1]
  Stability, Mean Life: 6.0 days
[2]
  Oil Sol. In 3GS: 0.1%

## CCN(c1ccccc1)c1ccc(N(CC)c2ccccc2)c2c1C(=O)c1ccccc1C2=O [Dye No. 17-14, 1,4-Bis(N--ethylanilino)]
[1]; 350° F.
  stability in the sealed tube test (in words): very unstable
[1]
  Stability, Mean Life: 4.5 days
[2]
  Oil Sol. In 3GS: 1.0%

## CCOc1ccc(Nc2ccc(Nc3ccc(OCC)cc3)c3c2C(=O)c2ccccc2C3=O)cc1 [Dye No. 7-3, 1,4-Bis(4-ethoxyanilino)]
[1]
  Stability, Mean Life: 8.5 days
[2]
  Oil Sol. In 3GS: < 1.0%

## O=C1c2ccccc2C(=O)c2c(NC(c3ccccc3)c3ccccc3)ccc(NC(c3ccccc3)c3ccccc3)c21 [Dye No. 12-20, 1,4-Bis(diphenylmethylamino)]
[1]
  Stability, Mean Life: 2.0 days
[2]
  Oil Sol. In 3GS: < 0.05%

## CCCCOc1ccc(Nc2ccc(Nc3ccc(OCCCC)cc3)c3c2C(=O)c2ccccc2C3=O)cc1 [Dye No. 8-2, 1,4-Bis(4-n-butoxyanilino)]
[1]
  Stability, Mean Life: 8.6 days
[2]
  Oil Sol. In 3GS: 0.02%

## CCCCc1ccc(Nc2cc(C)c(Nc3ccc(CCCC)cc3)c3c2C(=O)c2ccccc2C3=O)cc1 [Dye No. 22-16, 1,4-Bis(4-n-butylanilino)-2-methyl]
[1]; 350° F.
  stability in the sealed tube test (in words): very unstable
[1]
  Stability, Mean Life: 3.0 days
[2]
  Oil Sol. In 3GS: 1.0%

## CCCCOc1ccc(N(C)c2ccc(N(C)c3ccc(OCCCC)cc3)c3c2C(=O)c2ccccc2C3=O)cc1 [Dye No. 20-12, 1,4-Bis(N--methyl-4-n-butoxyanilino)]
[1]; 350° F.
  stability in the sealed tube test (in words): very unstable
[1]
  Stability, Mean Life: 4.0 days
[2]
  Oil Sol. In 3GS: 0.1%

## CC(C)(C)c1ccc(Nc2ccc(Nc3ccc(C(C)(C)C)cc3)c3c2C(=O)c2ccccc2C3=O)cc1 [Dye No. 6-21, 1,4-Bis(4-t-butylanilino)]
[1]
  Stability, Mean Life: 8.7 days
[2]
  Oil Sol. In 3GS: 1.0%

## CC(C)(C)CNc1ccc(NCC(C)(C)C)c2c1C(=O)c1ccccc1C2=O [Dye No. 15-13, 1,4-Bis(neopentylamino)]
[1]; 350° F.
  stability in the sealed tube test (in words): very unstable
[1]
  Stability, Mean Life: 3.4 days
[2]
  Oil Sol. In 3GS: < 1.0%
